Assay results: the supplement of paper PMC11061612

Tests used:
[1] = tested on: OCI-AML3 (Acute Myeloid Leukemia); test: Bliss excess, mean over the matrix (fraction); higher = more synergy
Outline: (§1)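 Cell lines in DMEM/F12 or RPMI with 10% FBS were plated in 1536-well plates, held 24 hours at 37°C, 5% CO2, then given two-drug dose matrices for 72 hours (DMSO typically 0.2%). Viability was read by CellTiter-Glo 2.0 luminescence and scaled as inhibition from 0 (vehicle wells) to 1 (blank wells). Combination Emax is the second-highest inhibition in the matrix; Bliss excess is observed combination effect minus expected EA + EB − EA·EB, EA and EB being single-agent effects.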

[2] = tested on: BICR10 (Oral Cavity Carcinoma); test: as above
Outline: as §1

[3] = tested on: H9 (T-Cell Non-Hodgkin's Lymphoma); test: combination Emax (second highest fraction inhibited in the dose matrix, 72 h); higher = more inhibition; extreme values may be limits of the assay
Outline: as §1

[4] = tested on: OCI-AML3 (Acute Myeloid Leukemia); test: as above
Outline: as §1

[5] = tested on: BICR10 (Oral Cavity Carcinoma); test: as above
Outline: as §1

[6] = tested on: KYSE-270 (Esophageal Squamous Cell Carcinoma); test: as above
Outline: as §1
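For Bliss excess, mean over the matrix in this document: after 72 h of two-drug dosing.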

With `C=CCn1c(=O)c2cnc(Nc3ccc(N4CCN(C)CC4)cc3)nc2n1-c1cccc(C(C)(C)O)n1` [AZD1775] + C1CN(CCC1(C(=O)N[C@@H](CCO)C2=CC=C(C=C2)Cl)N)C3=NC=NC4=C3C=CN4 [Capivasertib] (first compound max 3 µM, partner max 3 µM) the Bliss excess [1] was 0.0051, the Bliss excess [2] was -0.0418 and the “combination Emax” value [3] was 0.95. For the same compound, the “combination Emax” value [4] was 0.914, the “combination Emax” value [5] was 0.829 and the “combination Emax” value [6] was 0.85.

For `CN(C)CCCOc1ccc(-c2ccc3ncc4c(c3c2)n(C2CCOCC2)c(=O)n4C)cn1` [AZD0156] + O=C(c1cc(Cc2n[nH]c(=O)c3ccccc23)ccc1F)N1CCN(C(=O)C2CC2)CC1 [Olaparib] (first compound max 3 µM, partner max 3 µM), the Bliss excess [1] was 0.128, the Bliss excess [2] was 0.0275 and the “combination Emax” value [3] was 0.445. For the same compound, the “combination Emax” value [4] was 0.392, the “combination Emax” value [5] was 0.348 and the “combination Emax” value [6] was 0.343.

`COc1nnc2ccc(N3CCC(c4ccc(OCCN5CCN(C)C(=O)[C@H]5C)cc4)CC3)nn12` [AZD5153] + C[C@@H]1COCCN1C2=NC(=NC(=C2)C3(CC3)[S@](=N)(=O)C)C4=C5C=CNC5=NC=C4 [AZD6738] (first compound max 1 µM, 7x7, partner max 10 µM) was tested, and the Bliss excess [1] was -0.0454, the “combination Emax” value [3] was 1 and the “combination Emax” value [4] was 1. For the same compound, the “combination Emax” value [6] was 0.57.

With `Cn1cnc2c(F)c(Nc3ccc(Br)cc3Cl)c(C(=O)NOCCO)cc21` [Selumetinib] + C=CCn1c(=O)c2cnc(Nc3ccc(N4CCN(C)CC4)cc3)nc2n1-c1cccc(C(C)(C)O)n1 [AZD1775] (first compound max 10 µM, partner max 1 µM) the Bliss excess [1] was -0.0213, the “combination Emax” value [3] was 1 and the “combination Emax” value [4] was 0.94. The “combination Emax” value [6] was 0.723.

For `CS(=O)(=O)CCNCc1ccc(-c2ccc3ncnc(Nc4ccc(OCc5cccc(F)c5)c(Cl)c4)c3c2)o1` [Lapatinib] + C[C@@H](Oc1cc(-c2cnn(C3CCNCC3)c2)cnc1N)c1c(Cl)ccc(F)c1Cl [Crizotinib] (first compound max 10 µM, 7x7, partner max 10 µM), the Bliss excess [1] was -0.0235, the “combination Emax” value [3] was 0.983 and the “combination Emax” value [4] was 0.846. For the same compound, the “combination Emax” value [6] was 0.967.

`Cn1cnc2c(F)c(Nc3ccc(Br)cc3Cl)c(C(=O)NOCCO)cc21` [Selumetinib] + CCN(CCO)CCCOc1ccc2c(Nc3cc(CC(=O)Nc4cccc(F)c4)[nH]n3)ncnc2c1 [AZD2811] (first compound max 10 µM, 7x7, partner max 1 µM) was tested, and the Bliss excess [1] was 0.0086, the “combination Emax” value [3] was 1 and the “combination Emax” value [4] was 0.949. For the same compound, the “combination Emax” value [6] was 0.295.

For `CC(=O)c1c(C)c2cnc(Nc3ccc(N4CCNCC4)cn3)nc2n(C2CCCC2)c1=O` [Palbociclib] + Cc1c2c(nn1C)CSCc1cc(n(C)n1)CSc1cc(c3ccccc3c1)OCCCc1c(C(=O)O)n(C)c3c-2c(Cl)ccc13 [AZD5991] (first compound max 10 µM, 7x7, partner max 1 µM), the Bliss excess [1] was 0.0376, the “combination Emax” value [3] was 0.742 and the “combination Emax” value [4] was 1. The “combination Emax” value [6] was 0.568.

In the case of `C[C@@H](c1ccc2nccn2c1)n1nnc2ncc(-c3cnn(C)c3)nc21` [Savolitinib] + CC1(C)CCC(CN2CCN(c3ccc(C(=O)NS(=O)(=O)c4ccc(NCC5CCOCC5)c([N+](=O)[O-])c4)c(Oc4cnc5[nH]ccc5c4)c3)CC2)=C(c2ccc(Cl)cc2)C1 [Venetoclax] (first compound max 1 µM, 7x7, partner max 1 µM), the Bliss excess [1] is reported as -0.0358, the “combination Emax” value [3] is reported as 0.155 and the “combination Emax” value [4] is reported as 0.154. For the same compound, the “combination Emax” value [6] was 0.15.
